Measurements published in patent US20240024273A1, “TOPICAL ADMINISTRATION OF 2-(DIETHYLAMINO)ETHYL 2-(4-ISOBUTYLPHENYL)PROPRIONATE FOR TREATMENT OF DISEASES” (TECHFIELDS PHARMA CO., LTD., priority 2020, published 2024).
Read-outs that look alike come from different tables or passages of the source.

How the values were obtained:
[1] = system: osteoarthritis of the knee; conditions: cited from earlier work
Osteoarthritis [2] = conditions: n=107; placebo −33.6; cited from earlier work
Osteoarthritis [3] = conditions: cited from earlier work
[4] = Phase 1 clinical study: plasma pharmacokinetics of prodrug and ibuprofen; assay type: in vivo, human; conditions: 70 mg; for AUC0-12 / Cmax: human, plasma; for AUC0-12: read-out: prodrug AUC0-12, geometric mean; for Cmax: read-out: prodrug Cmax, geometric mean
Procedure: Following a 5-day washout period, 2-(diethylamino)ethyl 2-(4-isobutylphenyl)propionate was administered b.i.d. during Days 6-11, and a morning dose only was administered to Day 12. Blood samples were collected for PK analysis over the 120-hour post-dose period following the Day 12 dose. Additionally, pre-dose blood samples were collected on Day 7 through Day 11 to evaluate steady-state status.
The same study procedures were followed as described in Part 1.
For single dose PK, serial blood samples were collected on Day 1 dose at the following time points: 0 (pre-dose), 0.25, 0.5, 0.75, 1, 1.5, 2, 2.5, 3, 4, 5, 6, 8, 10, 12, 18, 24, 48, 72, 96 and 120 hours post-dose.
For multiple-dose PK, serial blood samples were collected on Day 12 at the following time points: 0 (pre-dose), 0.25, 0.5, 0.75, 1, 1.5, 2, 2.5, 3, 4, 5, 6, 8, 10, 12, 18, 24, 48, 72, 96 and 120 hours post-dose.
The relative bioavailability of the single dose 70 mg topical application vs. 70 mg spray application was determined based on AUCtau, AUCinf and Cmax. The 90% confidence intervals (CIs) on the ratio of topical application vs. spray application were calculated.

[5] = topical or ocular, Day 1, 70 mg topical
[6] = topical or ocular, Day 12, 70 mg topical

SMILES: COc1ccc2cc([C@H](C)C(=O)O)ccc2c1 [Naproxen]
- average daily paracetamol use ([1]; naproxen group): 670 mg
- Patient's Assessment of Arthritis Pain (VAS 0-100 mm), change (Osteoarthritis [2]): −37.5 mm
- difference from placebo, sign and symptoms of OA (Osteoarthritis [3]; 500 mg BID oral, Week 12): −5.8
- patients improved by 2 grades or more from baseline (physician's global assessment) (Osteoarthritis [3]; 500 mg BID): 33%
- Mean ± SEM WOMAC Osteoarthritis Index Composite Score Change from Baselines (Osteoarthritis [3]; 500 mg, BID, orally, 12 Weeks, scale 0 to 96): −11.9 ± 1.29

SMILES: COc1ccc2cc([C@H](C)C(=O)OCCCCO[N+](=O)[O-])ccc2c1 [naproxcinod]
- decrease of paracetamol use vs placebo group ([1]; active groups): 19.2% to 24.9

SMILES: CCN(CC)CCOC(=O)C(C)c1ccc(CC(C)C)cc1.Cl (stereo not drawn) [2-(diethylamino)ethyl 2-(4-isobutylphenyl)propionate hydrochloride]
- prodrug AUC0-12 ratio Topical/Spray ([4]; Day 1): 3.28
- prodrug Cmax ratio Topical/Spray ([4]; Day 1): 1.34
- prodrug AUC0-12 ratio Topical/Spray ([4]; Day 12): 0.91
- prodrug Cmax ratio Topical/Spray ([4]; Day 12): 0.93
- AUC0-12 [4, 5]: 0.913 ng·h/mL
- Cmax [4, 5]: 0.138 ng/mL
- AUC0-12 [4, 6]: 0.953 ng·h/mL
- Cmax [4, 6]: 0.143 ng/mL
- AUC0-12 ([4]; topical, Day 1, 70 mg spray): 0.279 ng·h/mL
- Cmax ([4]; topical, Day 1, 70 mg spray): 0.102 ng/mL
- AUC0-12 ([4]; topical, Day 12, 70 mg spray): 1.05 ng·h/mL
- Cmax ([4]; topical, Day 12, 70 mg spray): 0.155 ng/mL
